How the values were obtained:
L 1210 cells = experiment: Tumor inhibition in mice, subcutaneous L1210 cells; format: in vivo; conditions: DBA/2 mice, L1210 s.c.; 0.5 mg/kg; saline control 6.7 days
Experimental: The ability of compounds of formula I to inhibit tumor growth in mice was tested as follows. 5×10^6 L 1210 cells were injected subcutaneously in the axillary region of DBA/2 mice (groups of 8 mice/treatment). Following intraperitoneal administration of saline solution only or saline solution containing a compound of formula I the length and width of the control tumor (receiving only saline) was measured at the indicated time and compared to those of animals receiving test compound to calculate the percentage of inhibition. Intraperitoneal administration of a saline solution containing the test compound, daily for 6 days, led to 60% tumor-free long term survivors (tumor weight zero). Median survival times for saline-treated control animals and animals receiving Compound 4 (0.5 mg/kg) were 6.7 and 15.6 days, respectively. Oral administration of the compound required a higher dosage of the inhibitor and led to a less-marked, but still significant reduction of the tumor weight and 25% long-term survivors as compared with the saline-treated control group.

carcinoma W256 = experiment: Walker-256 rat tumor model; format: in vivo
Experimental: Compounds of formula I were also active in vivo against the carcinoma W256 (TGI=28%), most likely due to the higher solubility and thus passive transport into the tumor compared with other anti-folate agents. Median survival times for saline-treated control animals and animals receiving Compound 4 (1 mg/kg) intraperitoneally in the Walker-256 rat tumor model were 22.5 and >46.3 days, respectively.

[1] = test system: dihydrofolate reductase (DHFR); conditions: one representative experiment out of 5; 37° C., pH 7.0, 20 μM dihydrofolate, 100 μM NADPH
[2] = 0.25 mg/kg - 3 doses every 4 days
[3] = 0.5 mg/kg - 3 doses every 4 days

N-[4-[[2,4-diamino-6-pteridinyl)methyl]amino]benzoyl]pseudoglutamic acid [Compound 4]
Median survival time (L 1210 cells): 15.6 days | No. animals surviving at day 30 days post-transplant (carcinoma W256; 0.1 mg/kg - 5 doses every day): 10/10 | Tumor volume (cm^3) ± SE (carcinoma W256; 0.1 mg/kg - 5 doses every day): 14.5 ± 3.8 cm^3 | No. animals surviving at day 30 days post-transplant (carcinoma W256; [2]): 8/10 | Tumor volume (cm^3) ± SE (carcinoma W256; [2]): 23 ± 3.5 cm^3 | No. animals surviving at day 30 days post-transplant (carcinoma W256; [3]): 9/10 | Tumor volume (cm^3) ± SE (carcinoma W256; [3]): 13.4 ± 3.07 cm^3 | No. animals surviving at day 30 days post-transplant (carcinoma W256; 1 mg/kg - one dose): 8/10 | Tumor volume (cm^3) ± SE (carcinoma W256; 1 mg/kg - one dose): 17.1 ± 3.3 cm^3 | Median survival time (carcinoma W256; Walker-256 rat tumor model, 1 mg/kg intraperitoneally, saline control 22.5 days): > 46.3 days | Relative IC50 (IC50(Compound)/IC50(MTX)) [1]: 0.75

Reference: patent publication US8518954B2, “Inhibitors of folic acid-dependent enzymes” (priority 2005, dated 2013)
